From US6586633B1, “Amine derivatives” (Pola Chemical Industries, Inc., priority 2001, dated 2003)
Where two headings read alike, the source gives them in different places.

What was measured:
Assay in all cases: Measurement of antifungal activity (minimum inhibitory concentration), agar dilution
Type in all cases: cell-based
[1] = tested on: M. canis TIMM0760; settings: Sabouraud's agar, one week at 27° C.; for MIC: Microsporum canis, 168 h, read-out: MIC value (minimum compound concentration that definitely inhibited any visible growth)
Method: (§1) Measurement of Antifungal Activity (Measurement of Minimum Inhibitory Concentration)
(§2) Antifungal activity of representative compounds of the present invention against dermatophytes was investigated.
(§3) Briefly, strains of dermatophytes to be tested were grown on slant media prepared with Sabouraud's agar (product of Nissuiseiyaku; pepton 1.0%, glucose 4.0%, agar 1.5%, pH 5.9) at 27° C. for two weeks, so as to allow sufficient production of conidiospores. Subsequently, sterilized saline solution containing 0.05% (wt/vol) TWEEN 80 was added thereto, and while the surface of the each medium was scraped with a platinum loop, the conidiospores were deaggregated and suspended in the saline solution. The suspension was filtered through a double face sterilized gauze sheet so as to remove agar and hypha pellets. The filtrate was diluted with a saline solution so as to make the concentration of the conidiospores decrease to 10^6/ml by use of a cytometer, and the resultant dilute filtrate served as a test dermatophytes solution. Meanwhile, a stock solution was prepared by adding 1 ml of dimethylsulfoxide to 10 mg of a compound to be tested. An aliquot (500 μl) of the stock solution was combined with dimethylsulfoxide (500 μl), to thereby prepare a 2-fold dilute solution. Dilution was similarly repeated until 13 different dilute solutions ranging from 10 to 0.0025 mg/ml (concentrations of the ultimate test system: 100-0.025 μg/ml) were obtained. 100 μl each of the diluted solutions of the test compound was dispensed into the sterilized petri dish. A Sabouraud's agar (pepton 1.0%, glucose 4.0%, agar 1.5%, pH 5.9; 10 ml), which had been sterilized and dissolved, was added thereto, and the mixture was thoroughly mixed and solidified. Next, the above-prepared test dermatophytes solution was planted in amounts of 5 μl by use of a microplanter.

[2] = tested on: T. rubrum IF09185; settings: Sabouraud's agar, one week at 27° C.; for MIC: Trichophyton rubrum, 168 h, read-out: MIC value (minimum compound concentration that definitely inhibited any visible growth)
Method: as §1, §2, §3

[3] = tested on: M. gypseum IF08231; settings: Sabouraud's agar, one week at 27° C.; for MIC: Nannizzia gypsea, 168 h, read-out: MIC value (minimum compound concentration that definitely inhibited any visible growth)
Method: as §1, §2, §3

[4] = tested on: T. mentagrophytes TIMM1189; settings: Sabouraud's agar, one week at 27° C.; for MIC: Trichophyton mentagrophytes, 168 h, read-out: MIC value (minimum compound concentration that definitely inhibited any visible growth)
Method: as §1, §2, §3

[5] = tested on: T. mentagrophytes IF07552; settings: Sabouraud's agar, one week at 27° C.; for MIC: Trichophyton mentagrophytes, 168 h, read-out: MIC value (minimum compound concentration that definitely inhibited any visible growth)
Method: as §1, §2, §3

[6] = tested on: T. rubrum IF05808; settings: Sabouraud's agar, one week at 27° C.; for MIC: Trichophyton rubrum, 168 h, read-out: MIC value (minimum compound concentration that definitely inhibited any visible growth)
Method: as §1, §2, §3

[7] = tested on: T. mentagrophytes TIMM1177; settings: Sabouraud's agar, one week at 27° C.; for MIC: Trichophyton mentagrophytes, 168 h, read-out: MIC value (minimum compound concentration that definitely inhibited any visible growth)
Method: as §1, §2, §3

[8] = tested on: T. mentagrophytes IF05811; settings: Sabouraud's agar, one week at 27° C.; for MIC: Trichophyton mentagrophytes, 168 h, read-out: MIC value (minimum compound concentration that definitely inhibited any visible growth)
Method: as §1, §2, §3

[9] = tested on: T. violaceum TIMM1264; settings: Sabouraud's agar, one week at 27° C.; for MIC: Trichophyton violaceum, 168 h, read-out: MIC value (minimum compound concentration that definitely inhibited any visible growth)
Method: as §1, §2, §3

Row | MIC [1] [µg/mL] | MIC [2] [µg/mL] | MIC ([3]; H. gypseum IF08231 (Table 1)) [µg/mL] | MIC [4] [µg/mL] | MIC [5] [µg/mL] | MIC [6] [µg/mL] | MIC [7] [µg/mL] | MIC [8] [µg/mL] | MIC [9] [µg/mL] | MIC ([3]; M. gypseum IF08231 (Table 2)) [µg/mL] | MIC value (minimum compound concentration that definitely inhibited any visible growth) ([3]; M. gypseum IF08231 (Table 2)) [µg/mL] | SMILES | MIC value (minimum compound concentration that definitely inhibited any visible growth) [1] [µg/mL] | MIC value (minimum compound concentration that definitely inhibited any visible growth) [2] [µg/mL] | MIC value (minimum compound concentration that definitely inhibited any visible growth) [4] [µg/mL] | MIC value (minimum compound concentration that definitely inhibited any visible growth) [5] [µg/mL] | MIC value (minimum compound concentration that definitely inhibited any visible growth) [6] [µg/mL] | MIC value (minimum compound concentration that definitely inhibited any visible growth) [7] [µg/mL] | MIC value (minimum compound concentration that definitely inhibited any visible growth) [8] [µg/mL] | MIC value (minimum compound concentration that definitely inhibited any visible growth) [9] [µg/mL] | MIC value (minimum compound concentration that definitely inhibited any visible growth) ([3]; H. gypseum IF08231 (Table 1)) [µg/mL]
1 | – | 12.5 | 3.12 | 12.5 | 12.5 | 12.5 | 12.5 | 12.5 | 12.5 | – | – | C=C(C)c1cccc(CN(C)C/C=C/C#CC(C)(C)C)c1C.Cl [Compound 52, trans-N-(6,6-Dimethyl-2-hepten-4-ynyl)-N-methyl-(3-isopropenyl-2-methylbenzyl)amine Hydrochloride] | – | – | – | – | – | – | – | – | –
2 | 0.1 | 0.1 | 0.39 | 0.2 | 0.2 | 0.1 | 0.1 | 0.1 | 0.1 | – | – | C=C(C)c1cccc(CN(C)C/C=C/C#CC(C)(C)C)c1.Cl [Compound 3, trans-N-(6,6-Dimethyl-2-hepten-4-ynyl)-N-methyl-(3-isopropenylbenzyl)amine Hydrochloride] | – | – | – | – | – | – | – | – | –
3 | 0.2 | 0.1 | 0.39 | 0.1 | 0.1 | 0.1 | 0.1 | 0.1 | 0.2 | – | – | C=C(C)c1cc(F)cc(CN(C)C/C=C/C#CC(C)(C)C)c1.Cl [Compound 64, trans-N-(6,6-Dimethyl-2-hepten-4-ynyl)-N-methyl-(3-fluoro-5-isopropenylbenzyl)amine Hydrochloride] | – | – | – | – | – | – | – | – | –
4 | 0.39 | 0.78 | 3.12 | 0.78 | 0.78 | 0.78 | 0.78 | 0.78 | 0.78 | – | – | C=C(CC)c1cccc(CN(C)C/C=C/C#CC(C)(C)C)c1.Cl [Compound 25, trans-N-(6,6-Dimethyl-2-hepten-4-ynyl)-N-methyl-[3-(1-ethylvinyl)benzyl]amine Hydrochloride] | – | – | – | – | – | – | – | – | –
5 | 6.25 | 3.12 | 12.5 | 6.25 | 6.25 | 3.12 | 6.25 | 6.25 | 12.5 | – | – | C=C(C)c1ccccc1CN(C)C/C=C/C#CC(C)(C)C.Cl [Compound 39, trans-N-(6,6-Dimethyl-2-hepten-4-ynyl)-N-methyl-(2-isopropenylbenzyl)amine Hydrochloride] | – | – | – | – | – | – | – | – | –
6 | 1.56 | 3.12 | 12.5 | 6.25 | 12.5 | 1.56 | 12.5 | 6.25 | 6.25 | – | – | C=C(C)c1cc(CN(C)C/C=C/C#CC(C)(C)C)ccc1C.Cl [Compound 74, trans-N-(6,6-Dimethyl-2-hepten-4-ynyl)-N-methyl-(3-isopropenyl-4-methylbenzyl)amine Hydrochloride] | – | – | – | – | – | – | – | – | –

Further lines, the compound ahead of its results:

Row | SMILES | MIC [1] [µg/mL] | MIC [2] [µg/mL] | MIC ([3]; H. gypseum IF08231 (Table 1)) [µg/mL] | MIC [4] [µg/mL] | MIC [5] [µg/mL] | MIC [6] [µg/mL] | MIC [7] [µg/mL] | MIC [8] [µg/mL] | MIC [9] [µg/mL] | MIC ([3]; M. gypseum IF08231 (Table 2)) [µg/mL] | MIC value (minimum compound concentration that definitely inhibited any visible growth) ([3]; M. gypseum IF08231 (Table 2)) [µg/mL] | MIC value (minimum compound concentration that definitely inhibited any visible growth) [1] [µg/mL] | MIC value (minimum compound concentration that definitely inhibited any visible growth) [2] [µg/mL] | MIC value (minimum compound concentration that definitely inhibited any visible growth) [4] [µg/mL] | MIC value (minimum compound concentration that definitely inhibited any visible growth) [5] [µg/mL] | MIC value (minimum compound concentration that definitely inhibited any visible growth) [6] [µg/mL] | MIC value (minimum compound concentration that definitely inhibited any visible growth) [7] [µg/mL] | MIC value (minimum compound concentration that definitely inhibited any visible growth) [8] [µg/mL] | MIC value (minimum compound concentration that definitely inhibited any visible growth) [9] [µg/mL] | MIC value (minimum compound concentration that definitely inhibited any visible growth) ([3]; H. gypseum IF08231 (Table 1)) [µg/mL]
7 | C=C(C)c1cc(C)cc(CN(C)C/C=C/C#CC(C)(C)C)c1.Cl [Compound 19, trans-N-(6,6-Dimethyl-2-hepten-4-ynyl)-N-methyl-(3-isopropenyl-5-methylbenzyl)amine Hydrochloride] | 0.1 | 0.1 | 0.2 | 0.05 | 0.05 | 0.1 | 0.1 | 0.1 | 0.1 | – | – | – | – | – | – | – | – | – | – | –
8 | C=C(C)c1cccc(CN(CC)C/C=C/C#CC(C)(C)C)c1.Cl [Compound 45, trans-N-(6,6-Dimethyl-2-hepten-4-ynyl)-N-ethyl-(3-isopropenylbenzyl)amine Hydrochloride] | 0.2 | 0.39 | 0.39 | 0.39 | 0.39 | 0.39 | 0.39 | 0.39 | 0.39 | – | – | – | – | – | – | – | – | – | – | –
9 | C=Cc1cccc(CN(C)C/C=C/C#CC(C)(C)C)c1.Cl [Compound 10, trans-N-(6,6-Dimethyl-2-hepten-4-ynyl)-N-methyl-(3-vinylbenzyl)amine Hydrochloride] | 0.2 | 0.39 | 0.78 | 0.39 | 0.39 | 0.39 | 0.39 | 0.39 | 0.78 | – | – | – | – | – | – | – | – | – | – | –
10 | C=C(C)c1cc(CN(C)Cc2ccc(C(C)(C)C)cc2)ccc1C.Cl [Compound 126, N-(4-tert-Butylbenzyl)-N-methyl-(3-isopropenyl-4-methylbenzyl)amine Hydrochloride] | 1.56 | 3.12 | – | 3.12 | 3.12 | 3.12 | 12.5 | 12.5 | 3.12 | 6.25 | – | – | – | – | – | – | – | – | – | –
11 | C/C=C(/C)c1cccc(CN(C)Cc2ccc(C(C)(C)C)cc2)c1.Cl [Compound 97, cis-N-(4-tert-Butylbenzyl)-N-methyl-[3-(1-methyl-1-propenyl)benzyl]amine Hydrochloride] | – | – | – | – | – | – | – | – | – | – | 3.12 | 0.39 | 0.78 | 0.78 | 3.12 | 1.56 | 1.56 | 1.56 | 1.56 | –
12 | C=C(C)c1cccc(CN(C)CC=Cc2ccccc2)c1.Cl [Compound 48, N-Cinnamyl-N-methyl-(3-isopropenylbenzyl)amine Hydrochloride] | 1.56 | 1.56 | 6.25 | 6.25 | 3.12 | 1.56 | 6.25 | 6.25 | 6.25 | – | – | – | – | – | – | – | – | – | – | –
13 | CC(C)=Cc1cccc(CN(C)C/C=C/C#CC(C)(C)C)c1.Cl [Compound 12, trans-N-(6,6-Dimethyl-2-hepten-4-ynyl)-N-methyl-[3-(2-methyl-1-propenyl)benzyl]amine Hydrochloride] | 0.2 | 0.2 | 0.78 | 0.39 | 0.39 | 0.39 | 0.78 | 0.39 | 0.39 | – | – | – | – | – | – | – | – | – | – | –
14 | C/C=C(/C)c1cccc(CN(C)C/C=C/C#CC(C)(C)C)c1.Cl [Compound 27, trans-, cis-N-(6,6-Dimethyl-2-hepten-4-ynyl)-N-methyl-[3-(1-methyl-1-propenyl)benzyl]amine Hydrochloride] | – | – | – | – | – | – | – | – | – | – | – | 0.78 | 1.56 | 1.56 | 1.56 | 1.56 | 1.56 | 1.56 | 1.56 | 6.25
15 | C=C(C)c1cc(C)cc(CN(C)Cc2ccc(C(C)(C)C)cc2)c1.Cl [Compound 88, N-(4-tert-Butylbenzyl)-N-methyl-(3-isopropenyl-5-methylbenzyl)amine hydrochloride] | 0.05 | 0.05 | – | 0.05 | 0.05 | 0.05 | 0.1 | 0.1 | 0.1 | 0.1 | – | – | – | – | – | – | – | – | – | –
16 | C=C(C)c1cccc(CN(C)Cc2ccc(C(C)(C)C)cc2)c1.Cl [Compound 77, N-(4-tert-Butylbenzyl)-N-methyl-(3-isopropenylbenzyl)amine Hydrochloride] | 0.2 | 0.1 | – | 0.2 | 0.1 | 0.1 | 0.2 | 0.39 | 0.2 | 0.39 | – | – | – | – | – | – | – | – | – | –
